Source: the NIST ThermoML archive (doi:10.1016/j.fluid.2014.07.036)

Test: refractive index (other wavelength) (dimensionless); xn = mol fraction of the nth substance listed
Details: 85 kPa, Liquid, Wavelength=632.8 nm, minimum deviation angle

CCCCCCCC[n+]1ccn(C)c1.F[B-](F)(F)F [1-methyl-3-octylimidazolium tetrafluoroborate] + CCCCCO
Details	refractive index
281.39 K, x1 = 0.012	1.4139
281.39 K, x1 = 0.339	1.4262
282.13 K, x1 = 0.014	1.4137
282.13 K, x1 = 0.33	1.4257
282.87 K, x1 = 0.015	1.4135
282.87 K, x1 = 0.32	1.4252
283.57 K, x1 = 0.018	1.4134
283.57 K, x1 = 0.315	1.4248
284.24 K, x1 = 0.019	1.4132
284.24 K, x1 = 0.305	1.4243
284.89 K, x1 = 0.02	1.413
284.89 K, x1 = 0.295	1.4238
285.51 K, x1 = 0.021	1.4128
285.51 K, x1 = 0.285	1.4233
286.09 K, x1 = 0.021	1.4126
286.09 K, x1 = 0.278	1.4229
286.64 K, x1 = 0.023	1.4125
286.64 K, x1 = 0.268	1.4224
287.13 K, x1 = 0.025	1.4124
287.13 K, x1 = 0.257	1.4219
287.58 K, x1 = 0.026	1.4123
287.58 K, x1 = 0.246	1.4214
287.98 K, x1 = 0.029	1.4123
287.98 K, x1 = 0.238	1.421
288.34 K, x1 = 0.03	1.4122
288.34 K, x1 = 0.23	1.4206
288.64 K, x1 = 0.032	1.4122
288.64 K, x1 = 0.224	1.4203
288.88 K, x1 = 0.034	1.4122
288.88 K, x1 = 0.217	1.42
289.09 K, x1 = 0.035	1.4122
289.09 K, x1 = 0.214	1.4198
289.29 K, x1 = 0.038	1.4123
289.29 K, x1 = 0.207	1.4195
289.44 K, x1 = 0.039	1.4123
289.44 K, x1 = 0.203	1.4193
289.63 K, x1 = 0.041	1.4123
289.63 K, x1 = 0.196	1.419
289.73 K, x1 = 0.042	1.4123
289.73 K, x1 = 0.191	1.4188
289.86 K, x1 = 0.044	1.4124
289.86 K, x1 = 0.19	1.4187
289.98 K, x1 = 0.047	1.4125
289.98 K, x1 = 0.186	1.4185
290.07 K, x1 = 0.05	1.4126
290.07 K, x1 = 0.181	1.4183
290.16 K, x1 = 0.052	1.4127
290.16 K, x1 = 0.179	1.4182
290.25 K, x1 = 0.055	1.4128
290.25 K, x1 = 0.175	1.418
290.31 K, x1 = 0.059	1.413
290.31 K, x1 = 0.173	1.4179
290.38 K, x1 = 0.062	1.4131
290.38 K, x1 = 0.168	1.4177
290.43 K, x1 = 0.066	1.4133
290.43 K, x1 = 0.166	1.4176
290.49 K, x1 = 0.069	1.4134
290.49 K, x1 = 0.161	1.4174
290.49 K, x1 = 0.598	1.4284
290.5 K, x1 = 1	1.4338
290.52 K, x1 = 0.071	1.4135
290.52 K, x1 = 0.156	1.4172
290.56 K, x1 = 0.076	1.4137
290.56 K, x1 = 0.1	1.4148
290.56 K, x1 = 0.151	1.417
290.59 K, x1 = 0.797	1.4313
290.59 K, x1 = 0.898	1.4327
290.6 K, x1 = 0.078	1.4138
290.6 K, x1 = 0.147	1.4168
290.61 K, x1 = 0.08	1.4139
290.61 K, x1 = 0.144	1.4167
290.65 K, x1 = 0.085	1.4141
290.65 K, x1 = 0.137	1.4164
290.66 K, x1 = 0.087	1.4142
290.66 K, x1 = 0.132	1.4162
290.67 K, x1 = 0.089	1.4143
290.67 K, x1 = 0.091	1.4144
290.67 K, x1 = 0.128	1.416
290.67 K, x1 = 0.13	1.4161
290.67 K, x1 = 0.697	1.4299
290.68 K, x1 = 0.094	1.4145
290.68 K, x1 = 0.096	1.4146
290.68 K, x1 = 0.098	1.4147
290.68 K, x1 = 0.118	1.4156
290.68 K, x1 = 0.121	1.4157
290.68 K, x1 = 0.123	1.4158
290.68 K, x1 = 0.125	1.4159
290.76 K, x1 = 0.498	1.4264
290.93 K, x1 = 0.396	1.4243
290.95 K, x1 = 0.2	1.4185
291.87 K, x1 = 1	1.4334
292.22 K, x1 = 0.898	1.4322
292.28 K, x1 = 0.598	1.4279
292.3 K, x1 = 0.797	1.4308
292.33 K, x1 = 0.498	1.4259
292.39 K, x1 = 0.697	1.4294
292.67 K, x1 = 0.396	1.4237
292.68 K, x1 = 0.2	1.4179
292.95 K, x1 = 0.1	1.414
293.43 K, x1 = 1	1.433
294.01 K, x1 = 0.498	1.4253
294.06 K, x1 = 0.898	1.4317
294.07 K, x1 = 0.598	1.4273
294.09 K, x1 = 0.797	1.4303
294.12 K, x1 = 0.697	1.4289
294.44 K, x1 = 0.396	1.423
294.76 K, x1 = 0.2	1.4171
295.04 K, x1 = 0.1	1.4132
295.05 K, x1 = 1	1.4325
295.73 K, x1 = 0.498	1.4248
295.84 K, x1 = 0.598	1.4268
295.89 K, x1 = 0.898	1.4312
295.91 K, x1 = 0.797	1.4299
295.92 K, x1 = 0.697	1.4283
296.31 K, x1 = 0.396	1.4224
296.55 K, x1 = 0.2	1.4165
296.68 K, x1 = 1	1.4321
297.32 K, x1 = 0.1	1.4124
297.61 K, x1 = 0.797	1.4294
297.68 K, x1 = 0.697	1.4278
297.69 K, x1 = 0.498	1.4241
297.71 K, x1 = 0.598	1.4262
297.84 K, x1 = 0.898	1.4306
298.31 K, x1 = 0.396	1.4217
298.41 K, x1 = 1	1.4316
298.67 K, x1 = 0.2	1.4158
299.26 K, x1 = 0.1	1.4116
299.58 K, x1 = 0.697	1.4273
299.58 K, x1 = 0.797	1.4288
299.74 K, x1 = 0.498	1.4235
299.74 K, x1 = 0.598	1.4256
299.92 K, x1 = 0.898	1.43
300.25 K, x1 = 1	1.4311
300.61 K, x1 = 0.396	1.4209
300.68 K, x1 = 0.2	1.4151
301.73 K, x1 = 0.1	1.4107
302.04 K, x1 = 1	1.4305
